# pIC50: −log10 of the molar value. Where two headings read alike, the source gives them in different places.
# What was measured:
# [1] = target: biotinylated human Gal-3 (hGal-3) (Homo sapiens, UniProt P17931); test: Competitive binding assay: biotinylated hGal-3 binding to microplate-adsorbed asialofetuin (ASF), spectrophotometric
# Outline: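 Competitive binding of biotinylated hGal-3 to plate-adsorbed asialofetuin was measured with serially diluted compounds over 3 h at 4° C. Bound protein was detected with streptavidin-peroxidase and ABTS substrate by absorbance. IC50 values are means of several measurements.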
# human Gal-1 (hGal-1) = human Gal-1 (hGal-1) (Homo sapiens, UniProt P09382); test: Competitive binding assay: biotinylated hGal-1 binding to microplate-adsorbed asialofetuin (ASF), spectrophotometric; details: hGal-1 binding to asialofetuin; Table 15; R and S epimers of selected Examples also listed; read-out: IC50 (Galectin-1 inhibition)
# Outline: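 Biotinylated hGal-1 (300-1000 ng/mL) incubated with compound on asialofetuin-coated plates 3 hours at 4 °C, washed, then streptavidin-peroxidase (80 ng/mL) 1 hour at 4 °C. ABTS substrate read spectrophotometrically; IC50 reported as mean of several measurements.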
# [2] = Table 13, hGal-3, read-out: IC50 (Gal-3 inhibition)
# Sequence of biotinylated human Gal-3 (hGal-3) (P17931 whole entry): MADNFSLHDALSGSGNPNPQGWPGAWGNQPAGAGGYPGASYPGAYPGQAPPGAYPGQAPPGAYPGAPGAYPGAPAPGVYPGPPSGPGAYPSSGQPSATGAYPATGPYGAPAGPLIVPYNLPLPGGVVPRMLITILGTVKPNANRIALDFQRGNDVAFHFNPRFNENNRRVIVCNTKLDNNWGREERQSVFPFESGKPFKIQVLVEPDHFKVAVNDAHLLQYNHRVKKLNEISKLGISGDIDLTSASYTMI
# Sequence of human Gal-1 (hGal-1) (P09382 whole entry): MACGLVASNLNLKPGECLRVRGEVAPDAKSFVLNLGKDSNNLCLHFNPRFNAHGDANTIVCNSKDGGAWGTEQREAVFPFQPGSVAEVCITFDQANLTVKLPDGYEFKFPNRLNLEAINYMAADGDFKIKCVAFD
pIC50 (human Gal-1 (hGal-1)),"pIC50 [1, 2]",Compound,also measured
6.06,,"CCN(C)C(=O)C(S[C@@H]1O[C@H](CO)[C@H](O)[C@H](n2cc(-c3cc(F)c(F)c(F)c3)nn2)[C@H]1O)C(C)(C)O (stereo partly drawn) [Example 2.31.203., 2-(((2S,3R,4S,5R,6R)-3,5-Dihydroxy-6-(hydroxymethyl)-4-(4-(3,4,5-trifluorophenyl)-1H-1,2,3-triazol-1-yl)tetrahydro-2H-pyran-2-yl)thio)-N-ethyl-3-hydroxy-N,3-dimethylbutanamide]","pIC50 ([1]; Gal-3 inhibition, Table 3, read-out: IC50): 6.68"
6.46,,"CCN(C)C(=O)C(S[C@@H]1O[C@H](CO)[C@H](O)[C@H](n2cc(-c3cc(F)c(Br)c(F)c3)nn2)[C@H]1O)C1(O)CCOCC1 (stereo partly drawn) [Example 18.41.203., 2-(((2S,3R,4S,5R,6R)-4-(4-(4-Bromo-3,5-difluorophenyl)-1H-1,2,3-triazol-1-yl)-3,5-dihydroxy-6-(hydroxymethyl)tetrahydro-2H-pyran-2-yl)thio)-N-ethyl-2-(4-hydroxytetrahydro-2H-pyran-4-yl)-N-methylacetamide]","pIC50 ([1]; Table 11, hGal-3, read-out: IC50 (Gal-3 inhibition)): 7.40"
6.70,6.96,"CO[C@@H]1[C@@H](n2cc(-c3cc(F)c(F)c(F)c3)nn2)[C@@H](O)[C@@H](CO)O[C@H]1SC(C(=O)N1CCC(F)(F)CC1)C1(O)CCC2(CC1)COC2 (stereo partly drawn) [Example 2.70.226.I., 1-(4,4-Difluoropiperidin-1-yl)-2-(((2S,3R,4S,5R,6R)-5-hydroxy-6-(hydroxymethyl)-3-methoxy-4-(4-(3,4,5-trifluorophenyl)-1H-1,2,3-triazol-1-yl)tetrahydro-2H-pyran-2-yl)thio)-2-(7-hydroxy-2-oxaspiro[3.5]nonan-7-yl)ethan-1-one]",
6.82,7.00,"2-(1,1-Difluoro-6-hydroxyspiro[2.5]octan-6-yl)-1-(4,4-difluoropiperidin-1-yl)-2-(((2S,3R,4S,5R,6R)-5-hydroxy-6-(hydroxymethyl)-3-methoxy-4-(4-(3,4,5-trifluorophenyl)-1H-1,2,3-triazol-1-yl)tetrahydro-2H-pyran-2-yl)thio)ethan-1-one [Example 2.73.226.I.]",
6.57,6.92,"CO[C@@H]1[C@@H](n2cc(-c3cc(F)c(F)c(F)c3)nn2)[C@@H](O)[C@@H](CO)O[C@H]1S[C@H](C(=O)N1CCC(F)(F)CC1)C1(O)CCC2(CCC2)CC1 [Example 2.69.226S.I., (S)-1-(4,4-Difluoropiperidin-1-yl)-2-(((2S,3R,4S,5R,6R)-5-hydroxy-6-(hydroxymethyl)-3-methoxy-4-(4-(3,4,5-trifluorophenyl)-1H-1,2,3-triazol-1-yl)tetrahydro-2H-pyran-2-yl)thio)-2-(7-hydroxyspiro[3.5]nonan-7-yl)ethan-1-one]",
6.68,,"CN(C)C(=O)[C@@H](S[C@@H]1O[C@H](CO)[C@H](O)[C@H](n2cc(-c3cc(F)c(F)c(F)c3)nn2)[C@H]1O)C1(O)CCOCC1 [Example 2.41.201S., (S)-2-(((2S,3R,4S,5R,6R)-3,5-Dihydroxy-6-(hydroxymethyl)-4-(4-(3,4,5-trifluorophenyl)-1H-1,2,3-triazol-1-yl)tetrahydro-2H-pyran-2-yl)thio)-2-(4-hydroxytetrahydro-2H-pyran-4-yl)-N,N-dimethylacetamide]","pIC50 ([1]; Gal-3 inhibition, Table 4, read-out: IC50): 7.22"
6.92,,"CN(CC(C)(C)F)C(=O)C(S[C@@H]1O[C@H](CO)[C@H](O)[C@H](n2cc(-c3cc(F)c(F)c(F)c3)nn2)[C@H]1O)C1(O)CCCCC1 (stereo partly drawn) [Example 2.39.222., 2-(((2S,3R,4S,5R,6R)-3,5-Dihydroxy-6-(hydroxymethyl)-4-(4-(3,4,5-trifluorophenyl)-1H-1,2,3-triazol-1-yl)tetrahydro-2H-pyran-2-yl)thio)-N-(2-fluoro-2-methylpropyl)-2-(1-hydroxycyclohexyl)-N-methylacetamide]","pIC50 ([1]; Gal-3 inhibition, Table 5, read-out: IC50): 7.30"
